Here are results for 5 compounds from publication PMC6273432, “Novel Selective Butyrylcholinesterase Inhibitors Incorporating Antioxidant Functionalities as Potential Bimodal Therapeutics for Alzheimer’s Disease” (Molecules, 2016).

Values joined by “and” are separate entries in the source; they are usually repeats but may differ in a detail not shown here. Identical values can stand only once. Like-named read-outs stand apart in the source and are kept apart here.

In one experiment the test system is BuChE. The note with it: cited from earlier work.
Another experiment deals with human BuChE (Homo sapiens, UniProt P06276). Nature of the experiment: Inhibitor kinetics, time dependence of BuChE carbamylation. It counts as biochemical. To be noted: r^2 > 0.99. As to the method: Solutions of human BuChE were treated with 7a in the range of 1–50 µM. At successive time intervals, aliquots were removed and the carbamylation reaction stopped by dilution. Residual enzyme activity at each time point and each inhibitor concentration level was estimated by adding the sample to a solution containing butyrylthiocholine substrate.
In order to monitor enzyme carbamylation over time, a 96-well plate was used, with all assay mixtures being made up to a final concentration of 250 μL for monitoring of absorbance at 412 nm. At time 0, 150 μL of inhibitor, at various concentrations, was added to an equal volume of enzyme. Thereafter, at successive time points, 50 μL aliquots were removed from these wells and added to wells containing 200 μL DTNB and BTCI in phosphate buffer pH 8.0. Hydrolysis of substrate was monitored by examining the changes in absorbance in each well at 412 nm over the following 30 s. Negative controls were run alongside the test solutions to take account of non-enzymatic hydrolysis, while positive controls gauged the rate of the uninhibited reaction. At least two replicate wells were run for each concentration of inhibitor. Plots of percentage inhibition over time were prepared using GraphPad Prism 4.03. A first order inhibition constant, kobs was obtained for each concentration of inhibitor by non-linear regression using an exponential decay function.

For experiment [1], the system named is HT-22 murine hippocampal cell line. Nature of the experiment: cells. It counts as cell-based. The note with it: glutamate 5 mM. As to the method:
The neuroprotective properties of the compounds were assessed using the HT-22 murine hippocampal cell line. This is an immortalized cell line which has become widely used in recent years to study oxidative stress induced neuronal cell death. The cell line lacks ionotropic glutamate receptors but is sensitive to glutamate cytotoxicity via non-receptor mediated pathway(s) that are to a significant extent propagated by reactive oxygen species. The cell line appeared to be a good cellular model for measuring an anti-oxidant mediated neuroprotective in vitro effect of the compounds [26, 27, 28].
Test compounds in DMSO solution (0.1%) were added to HT-22 cell culture for (24 h), using four repeats in three independent experiments. […] Lipoic acid and ferulic acid were also non-toxic in the same concentration range. Next, the neuronal cell culture was treated with glutamate (5 mM) which caused about 90% cell death as reflected in the MTT assay. Quercetin served as positive control and caused rescue of cell death to around 80% cell viability at 25 µM. Cells were co-treated with test compounds 7a–d and 8a–d at 1, 5, 10 and 25 µM in four repeats and three independent experiments. Lipoic and ferulic acid were tested in parallel experiments in the same concentration range. Lipoic acid was active in the range 10–25 µM but ferulic acid was not active (data not shown). […] The reasons for this unexpected variation in efficacy is not clear but may be due to (intra)cellular access.
This test was performed as reported before. Briefly, HT-22 cells were seeded in 96-well plates at a density of 5 × 10^3 per well and cultured for 24 h. Subsequently, cells were incubated for another 24 h either with medium or test compounds with potential cytoprotective activity either in the absence (to test for toxic effects) or the presence (to test for the protective potential against glutamate induced oxidative stress) of 5 mM glutamate. MTT solution (4 mg/mL in PBS) was diluted 1:10 with medium and the mixture was added to the wells after removal of the previous medium. The plates were then incubated for another 3 h. Then, the supernatant was removed and 100 µL of lysis buffer (10% SDS, pH 4.1) were added to the wells. Absorbance at 560 nm was determined on the next day using a multiwell plate photometer (Spectra Fluor Plus, Tecan, Crailsheim, Germany). The results of these cell viability assays were expressed as percentages relative to untreated control cells. All compounds were dissolved in DMSO and diluted with fresh medium, with the DMSO concentration always below 0.1% (v/v).
Data of all MTT tests were expressed as means ± SD of at least three independent experiments (in quadruplicates). Data were subjected to one-way ANOVA followed by Dunnett’s multiple comparison post-test using GraphPad Prism 5 Software. (Levels of significance ** p < 0.01; *** p < 0.001).

For experiment [2], the target named is T1, BuChE purified from human plasma (Homo sapiens, UniProt P06276).
T1 construct: BuChE purified from human plasma; from tissue; host or cells: human plasma
The experiment is described as follows: Ellman assay, BuChE inhibition. It counts as biochemical. The note with it: for Selectivity: IC50 AChE/IC50 BuChE, 100 µM used for AChE where % inhibition at 100 µM was <50%; for IC50: n = 3. As to the method:
(§1) Inhibitory activities of the isosorbide-2-carbamates bearing a lipoate ester (7a–d), a ferulate ester (8a–d) ester or 5-unsubstituted compounds (6a–d) was measured using the standard Ellman spectrophotometric method using AChE from electric eel or BuChE purified from human plasma with acetylthiocholine or butyrylthiocholine as appropriate (Table 1). […] These values are in the potency range of clinically used cholinesterase inhibitors. […] In most cases, it was not possible to achieve a maximal inhibition of AChE because the solubility threshold was lower than the concentration required for maximal inhibition. In previous studies, we noticed that phenyl carbamates of isosorbide are relatively weak inhibitors of BuChE compared with the benzyl and alkyl carbamates, but that AChE is relatively tolerant of isosorbide phenyl carbamates. We published a paper showing that isosorbide-2,5-diaryl esters are moderately potent substrate-inhibitors of AChE [25]. […] The effect of (appropriate) 5-ester substitution in the series of isosorbide compounds already published is to increase potency by promoting affinity in the pre-carbamylation state, reducing the pseudo Michaelis constant for the carbamate substrate (referred to as Kc in carbamylation literature). When the intrinsic affinity of the substrate carbamate is higher, there is a relatively greater proportion of the unimolecular E. carbamate complex. In the present case, the anti-oxidant ester functionality directly contributes to potency by increasing substrate affinity. […] Indeed, ester hydrolysis at the isosorbide C-5, which is slow, would produce the ferulic acid or lipoic acid byproduct.
(§2) Cholinesterase activity was measured using the Ellman spectrophotometric method. HuBuChE activity was measured in replicate samples using a 96-well plate reader. The total volume of test solution in each well was 250 μL. This consisted of 25 μL of plasma solution, 150 μL of phosphate buffer pH 8.0, 25 μL of DTNB solution (0.5 mM), and 25 μL of acetonitrile:distilled water (1:1). The 96-well plate was incubated for 30 min before 25 μL of butyrylthiocholine iodide (BTCI) solution (0.5 mM) was added, and the reaction was measured at 405 nm over 5 min using an Anthos bt2 plate reader. For the determination of AChE activity, 25 μL of electric eel AChE solution and 25 μL of acetylthiocholine iodide (ATCI) solution were used instead of the plasma solution and BTCI solution. For determination of enzyme inhibition, 25 μL of an inhibitor solution was added to the test solution instead of the acetonitrile:water (1:1) solution. Inhibitors were added 30 min before determination of remaining enzyme activity. IC50 values were calculated using GraphPad Prism 4.02 software (GraphPad Software Inc., La Jolla, CA, USA).

A further experiment has as its target T2, AChE from electric eel (Electrophorus electricus, UniProt O42275).
T2 construct: AChE from electric eel; from tissue
Nature of the experiment: Ellman assay, AChE inhibition. It counts as biochemical. To be noted: 100 μM; n = 3; read-out: AChE %I at 100 μM. As to the method: as §1, §2

A short description of experiment [3]: Oxygen radical absorbance capacity (ORAC) assay. It counts as physicochemical. The note with it: for ORAC antioxidant capacity: TE = 1 equals trolox. As to the method: The antioxidant capacity of 7d and 8a was assessed directly using the oxygen radical absorbance capacity (ORAC) assay, in which the physicochemical ability of the test compounds to scavenge radicals and quench fluorescein […] is quantified and related to so-called trolox equivalents (TE = 1 represents the antioxidant equivalence to trolox, a water-soluble Vitamin E derivative). Compound 7d was 0.163 ± 0.146, 8a, 0.635 ± 0.020, thus showing a very weak ORAC for the lipoate and a weak, but significant, effect for the ferulic acid derivative. The lack of activity of the lipoate in the non-cellular ORAC assay is not surprising as its anti-oxidant effects are mainly related to cellular or mitochondria related processes.
Compounds were assessed for antioxidant capacity using the standard ORAC assay performed as described previously.

[4] abbreviates: inhibitor added 30 min before, read-out: BChE IC50.
Setting [5] is: read-out: BChE pIC50 ± SEM (converted).

T2 sequence (O42275 24-633): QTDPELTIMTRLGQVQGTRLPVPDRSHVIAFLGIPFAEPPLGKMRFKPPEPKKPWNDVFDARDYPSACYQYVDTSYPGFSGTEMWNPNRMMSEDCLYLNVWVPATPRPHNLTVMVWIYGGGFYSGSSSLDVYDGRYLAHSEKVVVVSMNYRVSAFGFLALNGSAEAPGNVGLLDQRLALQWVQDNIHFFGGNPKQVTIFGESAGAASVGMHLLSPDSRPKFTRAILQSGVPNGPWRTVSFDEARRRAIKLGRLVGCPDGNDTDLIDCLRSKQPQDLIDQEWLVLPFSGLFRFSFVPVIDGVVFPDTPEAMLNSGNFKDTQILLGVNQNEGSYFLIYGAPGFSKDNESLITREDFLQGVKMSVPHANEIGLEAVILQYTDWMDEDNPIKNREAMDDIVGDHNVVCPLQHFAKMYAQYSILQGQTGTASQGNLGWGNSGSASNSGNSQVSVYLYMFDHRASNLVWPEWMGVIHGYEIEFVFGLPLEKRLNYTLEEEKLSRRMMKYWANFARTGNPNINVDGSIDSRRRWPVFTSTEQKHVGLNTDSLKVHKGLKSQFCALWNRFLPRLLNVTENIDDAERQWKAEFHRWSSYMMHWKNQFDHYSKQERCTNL
T1 sequence (P06276 29-602): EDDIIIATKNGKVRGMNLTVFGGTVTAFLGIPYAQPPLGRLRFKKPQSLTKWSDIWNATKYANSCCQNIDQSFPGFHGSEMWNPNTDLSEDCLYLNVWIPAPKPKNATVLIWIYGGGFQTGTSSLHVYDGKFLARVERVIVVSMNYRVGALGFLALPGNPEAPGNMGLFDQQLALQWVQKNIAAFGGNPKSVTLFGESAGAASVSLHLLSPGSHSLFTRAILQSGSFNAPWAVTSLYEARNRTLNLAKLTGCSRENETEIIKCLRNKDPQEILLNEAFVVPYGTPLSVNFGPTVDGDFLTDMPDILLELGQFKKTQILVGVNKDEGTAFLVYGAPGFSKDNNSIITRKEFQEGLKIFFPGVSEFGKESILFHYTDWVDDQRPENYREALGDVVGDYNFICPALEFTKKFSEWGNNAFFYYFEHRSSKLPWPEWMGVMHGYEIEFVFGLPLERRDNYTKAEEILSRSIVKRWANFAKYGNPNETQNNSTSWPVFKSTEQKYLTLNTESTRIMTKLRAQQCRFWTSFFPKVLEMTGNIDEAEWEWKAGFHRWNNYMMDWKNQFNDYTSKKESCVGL
Sequence of human BuChE (P06276 29-602): as above

Turning to `O=C(NCc1ccccc1)O[C@H]1CO[C@H]2[C@@H]1OC[C@H]2OC(=O)c1ccccc1` [Compound 1], the IC50 in the experiment with BuChE (read-out: IC50 BuChE) was 4.3 nM.
On to `O=C(CCCCC1CCSS1)O[C@@H]1CO[C@H]2[C@@H]1OC[C@@H]2OC(=O)NCc1ccccc1` (stereo partly shown) [Compound 7a, Isosorbide-2-benzylcarbamate-5-lipoic acid ester], for which the “pseudo first order rate constant of BuChE inhibition” value at human BuChE (inhibitor 10 µM) came to 0.068 min⁻¹; on human BuChE (inhibitor 50 µM), 0.198 min⁻¹. Moreover, the “concentration range with neuroprotective effect” value in experiment [1] (tested at 1, 5, 10 and 25 µM) is 5 to 25 µM and > 5 µM. The Selectivity in experiment [2] is on record as greater than 667. Moreover, in experiment [2] (setting [4]), the IC50 was determined as 150 nM. Also, on AChE from electric eel, the inhibition at 100 µM worked out at 30.8%.
On to `CCNC(=O)O[C@H]1CO[C@H]2[C@@H]1OC[C@H]2OC(=O)CCCCC1CCSS1` (stereo partly shown) [Compound 7d, Isosorbide-2-ethylcarbamate-5-lipoic acid ester], for which the “neuroprotective effect” value in experiment [1] (1–25 µM) was “showed some effects”. The IC50 in experiment [2] (setting [4]) was determined as 5710 nM. Further, in experiment [2] (setting [5]), the IC50 was 5750 nM. Also, in experiment [3], the “ORAC antioxidant effect” value is “not active” and the ORAC antioxidant capacity is given as 0.163 ± 0.146 Trolox Equivalent. In addition, the inhibition at 100 µM at AChE from electric eel came out at 84.1%.
As to `COc1cc(/C=C/C(=O)O[C@@H]2CO[C@H]3[C@@H]2OC[C@@H]3OC(=O)NCc2ccccc2)ccc1O` [Compound 8a, Isosorbide-2-benzylcarbanate-5-ferulate], the Selectivity in experiment [2] was greater than 55. Moreover, the IC50 was 1820 nM in experiment [2] (setting [4]) and 1620 nM in experiment [2] (setting [5]). In experiment [3], this compound came in with an ORAC antioxidant capacity of 0.635 ± 0.020 Trolox Equivalent. The inhibition at 100 µM on AChE from electric eel was 25.2%.
In the case of `O=C(NCc1ccccc1)OC1COC2C(OC(=O)c3ccccc3O)COC12` (stereo not shown) [Isosorbide-2-benzyl carbamate-5-salicylate], the IC50 in the experiment on BuChE (read-out: IC50 for BuChE) was less than 0.15 nM.
